Reference: patent publication US8710233B2 (Gruenenthal GmbH, priority 2005, dated 2014)
Where two headings read alike, the source gives them in different places.

What was measured:
[1] = molecular target: T1, vanilloid receptor 1 (VR1/TRPV1) of the rat species (Rattus norvegicus, UniProt O35433); assay: FLIPR Ca2+ influx assay on rat dorsal root ganglia cells (pharmacological method I); format: cell-based; conditions: table 4, capsaicin
T1 construct: The spinal column is removed from decapitated rats; from tissue; host or cells: primary cells dissociated from rat dorsal root ganglia
In short: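 Primary rat dorsal root ganglion cells loaded with 2 μM Fluo-4, Ca2+ influx read on FLIPR as peak fluorescence. Triplicates, at least 3 independent experiments.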

VR1/TRPV1 receptor = VR1/TRPV1 receptor (Homo sapiens, UniProt Q8NER1); assay: IC50 (human) after pH stimulus; format: cell-based; conditions: table 4
[2] = system: capsaicin induced hypothermie; assay: Hypothermie assay in the mouse (capsaicin induced hypothermie); format: in vivo; conditions: mouse, read-out: inhibition hypothermie (n = 5); for inhibition in vivo at 0.1 mg/kg: 0.1 mg/kg body weight po
[3] = system: cold allodynia after chronic constriction injury; assay: Neuropathic pain in mice, Bennet model (chronic constriction injury, cold allodynia); format: in vivo; conditions: mouse
Excerpt: VI. Neuropathic Pain in Mice
The efficacy of compounds of general formula I in the treatment of neuropathic pain is investigated by using the Bennet modell (chronic constriction injury; Bennett and Xie, 1988, Pain 33: 87-107.
NMRI mice (weight 16 to 18 g) under ketavet-rompun anaesthesia are supplied with three loose ligatures of the right nervus ischiaticus. The animals develop an oversensitivity to cold at the position of the pad that is innervated by the injured nerve which—after a recovery period of one week—is quantified over a period of three weeks by using a metal plate that is cooled to 4° C. (cold allodynia). The animals are observed for a period of 2 minutes on this plate and the number of brisk withdrawal reactions of the injured nerve is counted. […] The group size is n=10, the stastical significance of efficacy against allodynia (*=p<0.05) is determined by analysis of variance with repeated measurements and post hoc analysis with Bonferroni adjustment.

Chain of VR1/TRPV1 receptor (Q8NER1 whole entry): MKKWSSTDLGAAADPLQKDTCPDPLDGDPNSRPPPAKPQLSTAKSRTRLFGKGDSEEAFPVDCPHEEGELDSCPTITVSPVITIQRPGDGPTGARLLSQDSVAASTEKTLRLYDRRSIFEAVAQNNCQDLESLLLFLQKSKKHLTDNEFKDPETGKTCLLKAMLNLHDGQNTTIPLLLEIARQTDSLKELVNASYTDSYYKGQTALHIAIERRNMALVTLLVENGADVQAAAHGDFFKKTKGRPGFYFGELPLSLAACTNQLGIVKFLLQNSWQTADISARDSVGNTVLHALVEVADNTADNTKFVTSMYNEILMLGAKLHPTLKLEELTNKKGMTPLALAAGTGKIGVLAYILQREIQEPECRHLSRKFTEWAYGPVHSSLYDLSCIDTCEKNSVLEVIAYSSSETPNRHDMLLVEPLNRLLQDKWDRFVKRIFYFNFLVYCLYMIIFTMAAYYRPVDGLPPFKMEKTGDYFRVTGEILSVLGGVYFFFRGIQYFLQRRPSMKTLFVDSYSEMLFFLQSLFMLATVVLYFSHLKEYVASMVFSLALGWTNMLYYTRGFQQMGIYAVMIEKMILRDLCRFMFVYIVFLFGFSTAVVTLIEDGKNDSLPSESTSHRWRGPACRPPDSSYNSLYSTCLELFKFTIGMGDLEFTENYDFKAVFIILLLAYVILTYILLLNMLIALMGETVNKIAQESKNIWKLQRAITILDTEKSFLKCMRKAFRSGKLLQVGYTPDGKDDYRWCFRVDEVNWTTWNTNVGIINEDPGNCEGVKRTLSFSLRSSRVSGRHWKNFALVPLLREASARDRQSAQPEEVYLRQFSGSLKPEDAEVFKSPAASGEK
T1 sequence (O35433 whole entry): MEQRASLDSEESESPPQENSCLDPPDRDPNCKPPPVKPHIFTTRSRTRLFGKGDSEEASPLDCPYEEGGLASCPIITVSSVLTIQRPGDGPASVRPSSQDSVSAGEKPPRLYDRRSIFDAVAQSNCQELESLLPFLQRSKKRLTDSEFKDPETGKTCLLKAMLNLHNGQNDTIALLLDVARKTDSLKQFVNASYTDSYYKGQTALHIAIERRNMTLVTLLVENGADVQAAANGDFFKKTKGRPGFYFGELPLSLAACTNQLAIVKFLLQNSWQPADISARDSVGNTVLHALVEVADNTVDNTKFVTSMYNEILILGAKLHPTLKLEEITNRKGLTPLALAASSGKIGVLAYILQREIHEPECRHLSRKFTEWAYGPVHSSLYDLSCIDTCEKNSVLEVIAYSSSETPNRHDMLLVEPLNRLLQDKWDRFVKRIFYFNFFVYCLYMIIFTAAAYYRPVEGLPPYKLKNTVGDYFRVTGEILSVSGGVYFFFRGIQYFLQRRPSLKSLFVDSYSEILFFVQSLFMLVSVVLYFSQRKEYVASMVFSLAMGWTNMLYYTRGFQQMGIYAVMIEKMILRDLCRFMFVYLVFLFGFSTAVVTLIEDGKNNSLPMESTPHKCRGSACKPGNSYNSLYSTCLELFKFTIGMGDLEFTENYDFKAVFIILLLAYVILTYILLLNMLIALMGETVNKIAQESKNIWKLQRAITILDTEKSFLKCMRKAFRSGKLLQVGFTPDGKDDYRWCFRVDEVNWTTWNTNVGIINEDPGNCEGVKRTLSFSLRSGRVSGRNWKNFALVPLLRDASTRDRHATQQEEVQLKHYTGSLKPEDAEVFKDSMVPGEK

CC(C(=O)NCc1ccc(C(F)(F)F)nc1OCCC(C)(C)C)c1ccc(NS(C)(=O)=O)c(F)c1 (stereo not drawn) [Example 125]
Ki ([1]; Ki (rat) Cap.): 1 nM
IC50 (VR1/TRPV1 receptor): 23.8 nM
inhibition in vivo at 0.1 mg/kg [2]: 5%
inhibition Bennet model (n = 10) ([3]; 0.01 mg/kg body weight po): 0.01 po 17%

Cc1ccc(Cl)cc1Nc1nc(C(F)(F)F)ccc1CNC(=O)C(C)c1ccc(NS(C)(=O)=O)c(F)c1 (stereo not drawn) [Example 136, N-[2-(5-chloro-2-methyl-phenylamino)-6-trifluoromethyl-pyridin-3-ylmethyl]-2-(3-fluoro-4-methylsulfonamido-phenyl)-propionamide]
Ki ([1]; read-out: Ki (rat) Cap.): 8.3 nM
IC50 (VR1/TRPV1 receptor): 140 nM
inhibition in vivo at 0.3 mg/kg ([2]; 0.3 mg/kg body weight po): 43%
inhibition Bennet model (n = 10) ([3]; 0.01 mg/kg body weight po): 0.01 po 13%

CC(C(=O)NCc1ccc(C(C)(C)C)nc1OC1CCCC1)c1ccc(NS(C)(=O)=O)c(F)c1 (stereo not drawn) [Example 234, N-(6-tert-butyl-2-cyclopentyloxy-pyridin-3-ylmethyl)-2-(3-fluoro-4-methylsulfonamido-phenyl)-propionamide]
Ki ([1]; read-out: Ki (rat) Cap.): 1 nM
IC50 (VR1/TRPV1 receptor): 85.3 nM
inhibition in vivo at 0.1 mg/kg [2]: 19%
inhibition Bennet model (n = 10) ([3]; 0.001 mg/kg body weight po): 0.001 po 26%
